{"source": "ChEMBL document CHEMBL3875185", "about": "“Structure-anticonvulsant activity studies in the group of (E)-N-cinnamoyl aminoalkanols derivatives monosubstituted in phenyl ring with 4-Cl, 4-CH3 or 2-CH3” (Bioorg Med Chem, 2017)", "key": {"Mus musculus [1]": {"tested_on": "Mus musculus", "assay": "Anticonvulsant activity in 6-Hz induced seizure mouse model assessed as restoration of normal activity within 10 secs from stimulation at 100 mg/kg, ip at 44 mA measured at […] post dose", "assay_type": "functional, organism-based"}, "Rattus norvegicus [2]": {"tested_on": "Rattus norvegicus", "assay": "Anticonvulsant activity in maximal electroshock induced seizure Sprague-Dawley rat model assessed as suppression in hindlimb tonic extension at 30 mg/kg, ip measured at […] post dose", "assay_type": "functional, organism-based"}, "Rattus norvegicus [3]": {"tested_on": "Rattus norvegicus", "assay": "Anticonvulsant activity in maximal electroshock induced seizure Sprague-Dawley rat model assessed as suppression in hindlimb tonic extension at 30 mg/kg, ip measured at 0.5 hrs post dose", "assay_type": "functional, organism-based"}, "[4]": {"target": "5-hydroxytryptamine receptor 3A (Homo sapiens) (UniProt P46098)", "sequence (P46098 whole entry)": "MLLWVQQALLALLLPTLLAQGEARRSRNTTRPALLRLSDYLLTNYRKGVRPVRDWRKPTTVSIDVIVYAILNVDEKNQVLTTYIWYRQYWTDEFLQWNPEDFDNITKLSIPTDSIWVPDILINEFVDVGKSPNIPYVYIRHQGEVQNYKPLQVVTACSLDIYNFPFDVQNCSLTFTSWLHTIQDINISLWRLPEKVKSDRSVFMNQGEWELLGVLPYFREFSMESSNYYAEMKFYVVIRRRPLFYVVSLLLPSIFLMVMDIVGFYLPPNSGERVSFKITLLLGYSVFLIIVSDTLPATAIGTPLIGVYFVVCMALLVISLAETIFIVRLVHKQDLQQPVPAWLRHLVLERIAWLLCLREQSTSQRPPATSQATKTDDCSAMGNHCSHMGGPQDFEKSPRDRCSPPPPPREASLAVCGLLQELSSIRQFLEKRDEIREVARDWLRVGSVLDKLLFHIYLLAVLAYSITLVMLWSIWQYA", "assay": "Displacement of [3H]BRL 43694 from human recombinant 5HT3 receptor expressed in CHO cells at 100 uM measured after 120 mins by scintillation counting method relative to control", "assay_type": "cell-based"}, "Mus musculus [5]": {"tested_on": "Mus musculus", "assay": "Anticonvulsant activity in pentylenetetrazole induced seizure mouse model assessed as no observable episode of clonic convulsion of at least 5 secs at 100 mg/kg, ip measured at 0.5 hrs post dose", "assay_type": "functional, organism-based"}, "Mus musculus [6]": {"tested_on": "Mus musculus", "assay": "Anticonvulsant activity in pentylenetetrazole induced seizure mouse model assessed as no observable episode of clonic convulsion of at least 5 secs at 300 mg/kg, ip measured at 4 hrs post dose", "assay_type": "functional, organism-based"}, "[7]": {"target": "Gastrin/cholecystokinin type B receptor (Homo sapiens) (UniProt P32239)", "sequence (P32239 whole entry)": "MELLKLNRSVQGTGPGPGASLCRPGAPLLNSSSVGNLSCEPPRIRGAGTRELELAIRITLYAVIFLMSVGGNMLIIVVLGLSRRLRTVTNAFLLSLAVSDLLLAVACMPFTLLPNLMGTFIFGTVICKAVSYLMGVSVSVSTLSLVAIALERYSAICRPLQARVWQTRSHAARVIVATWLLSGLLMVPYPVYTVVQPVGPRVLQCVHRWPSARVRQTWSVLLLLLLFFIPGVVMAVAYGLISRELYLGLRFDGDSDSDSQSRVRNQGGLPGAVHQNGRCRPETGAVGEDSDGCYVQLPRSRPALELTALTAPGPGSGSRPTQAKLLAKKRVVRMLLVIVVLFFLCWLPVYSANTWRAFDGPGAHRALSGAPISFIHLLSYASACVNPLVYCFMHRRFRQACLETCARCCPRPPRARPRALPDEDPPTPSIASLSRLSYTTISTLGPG", "assay": "Displacement of [125I]CCK-8s from human recombinant CCK2 receptor expressed in CHO cells at 100 uM measured after 60 mins by scintillation counting method relative to control", "assay_type": "cell-based"}, "[8]": {"target": "Muscarinic acetylcholine receptor M1 (Homo sapiens) (UniProt P11229)", "sequence (P11229 whole entry)": "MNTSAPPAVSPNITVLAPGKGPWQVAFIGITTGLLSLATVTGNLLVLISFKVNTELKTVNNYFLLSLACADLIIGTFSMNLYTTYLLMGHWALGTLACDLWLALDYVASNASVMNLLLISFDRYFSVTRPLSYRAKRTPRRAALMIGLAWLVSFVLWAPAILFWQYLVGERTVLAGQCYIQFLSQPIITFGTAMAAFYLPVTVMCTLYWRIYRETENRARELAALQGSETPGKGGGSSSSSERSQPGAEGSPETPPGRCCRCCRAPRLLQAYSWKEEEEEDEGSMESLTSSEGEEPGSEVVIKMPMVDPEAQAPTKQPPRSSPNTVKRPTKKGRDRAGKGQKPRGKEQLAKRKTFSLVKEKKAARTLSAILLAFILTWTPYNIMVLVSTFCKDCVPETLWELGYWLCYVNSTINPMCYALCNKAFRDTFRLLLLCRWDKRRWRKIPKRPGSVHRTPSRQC", "assay": "Displacement of [3H]pirenzepine from human recombinant M1 receptor expressed in CHO cells at 100 uM measured after 60 mins by scintillation counting method relative to control", "assay_type": "cell-based"}, "[9]": {"target": "Neuropeptide Y receptor type 1 (Homo sapiens) (UniProt P25929)", "sequence (P25929 whole entry)": "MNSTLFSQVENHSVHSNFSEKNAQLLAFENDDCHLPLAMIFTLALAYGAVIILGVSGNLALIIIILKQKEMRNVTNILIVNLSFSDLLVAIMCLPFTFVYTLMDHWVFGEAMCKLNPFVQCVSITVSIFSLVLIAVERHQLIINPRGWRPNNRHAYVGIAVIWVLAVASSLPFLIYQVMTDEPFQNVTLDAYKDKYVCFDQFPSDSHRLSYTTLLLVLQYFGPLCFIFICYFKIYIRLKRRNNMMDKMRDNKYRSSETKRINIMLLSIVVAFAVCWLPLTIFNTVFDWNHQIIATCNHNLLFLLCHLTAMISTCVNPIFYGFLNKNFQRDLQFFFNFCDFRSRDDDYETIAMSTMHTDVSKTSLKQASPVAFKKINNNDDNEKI", "assay": "Displacement of [125I]peptide YY from Y1 in human SK-N-MC cells receptor at 100 uM measured after 120 mins by scintillation counting method relative to control", "assay_type": "cell-based"}, "Mus musculus [10]": {"tested_on": "Mus musculus", "assay": "Anticonvulsant activity in maximal electroshock induced seizure mouse model assessed as suppression in hindlimb tonic extension at 100 mg/kg, ip measured at 0.5 hrs post dose", "assay_type": "functional, organism-based"}, "Rattus norvegicus [11]": {"tested_on": "Rattus norvegicus", "assay": "Anticonvulsant activity in maximal electroshock induced seizure Sprague-Dawley rat model assessed as suppression in hindlimb tonic extension at 30 mg/kg, po measured at 1 hr post dose", "assay_type": "functional, organism-based"}, "Rattus norvegicus [12]": {"tested_on": "Rattus norvegicus", "assay": "Neurotoxicity in Sprague-Dawley rat assessed as behavioral change at 30 mg/kg, ip measured at […] post dose", "assay_type": "toxicity, organism-based", "settings": "in vivo"}, "Rattus norvegicus [13]": {"tested_on": "Rattus norvegicus", "assay": "Neurotoxicity in Sprague-Dawley rat assessed as behavioral change at 30 mg/kg, ip measured at 0.5 hrs post dose", "assay_type": "toxicity, organism-based", "settings": "in vivo"}, "Rattus norvegicus [14]": {"tested_on": "Rattus norvegicus", "assay": "Neurotoxicity in Sprague-Dawley rat assessed as behavioral change at 30 mg/kg, ip measured at 2 hrs post dose", "assay_type": "toxicity, organism-based", "settings": "in vivo"}, "Rattus norvegicus [15]": {"tested_on": "Rattus norvegicus", "assay": "Neurotoxicity in Sprague-Dawley rat assessed as behavioral change at 30 mg/kg, ip measured at 4 hrs post dose", "assay_type": "toxicity, organism-based", "settings": "in vivo"}, "Mus musculus [16]": {"tested_on": "Mus musculus", "assay": "Neurotoxicity in po dosed mouse assessed as induction of motor impairment by measuring time to peak effect by rotarod method", "assay_type": "toxicity, organism-based", "settings": "in vivo"}, "Rattus norvegicus [17]": {"tested_on": "Rattus norvegicus", "assay": "Anticonvulsant activity in po dosed pentylenetetrazole induced seizure Sprague-Dawley rat model assessed as no observable episode of clonic convulsion of at least 5 secs by measuring time to peak effect", "assay_type": "functional"}, "Rattus norvegicus [18]": {"tested_on": "Rattus norvegicus", "assay": "Anticonvulsant activity in po dosed pentylenetetrazole induced seizure Sprague-Dawley rat model assessed as no observable episode of clonic convulsion of at least 5 secs", "assay_type": "functional"}, "[19]": {"assay": "Protection index, ratio of TD50 for neurotoxicity in po dosed Sprague-Dawley rat model to ED50 for po dosed pentylenetetrazole induced seizure Sprague-Dawley rat model", "assay_type": "toxicity, organism-based", "settings": "in vivo, read-out: Ratio TD50/ED50"}}, "note": "Activity calls are given as the source filed them. No cut-off for these calls is given here."}
{"smiles": "CCC(CO)NC(=O)/C=C/c1ccc(Cl)cc1", "note": "(centres undefined)", "values": [{"measurement": "Activity", "setting": "Mus musculus [1]", "value": "Active"}, {"measurement": "Activity", "setting": "Rattus norvegicus [2]", "value": "Active"}, {"measurement": "Activity", "setting": "Rattus norvegicus [3]", "value": "Active"}, {"measurement": "inhibition", "setting": "[4]", "value": -1.6, "unit": "%"}]}
{"smiles": "CC(O)CNC(=O)/C=C/c1ccc(Cl)cc1", "note": "(centres undefined)", "values": [{"measurement": "Activity", "setting": "Mus musculus [5]", "value": "Active"}, {"measurement": "Activity", "setting": "Mus musculus [6]", "value": "Active"}, {"measurement": "inhibition", "setting": "[7]", "value": -9.8, "unit": "%"}, {"measurement": "inhibition", "setting": "[8]", "value": -9.8, "unit": "%"}, {"measurement": "inhibition", "setting": "[9]", "value": -5.8, "unit": "%"}]}
{"smiles": "Cc1ccccc1/C=C/C(=O)N[C@@H](C)CO", "values": [{"measurement": "Activity", "setting": "Mus musculus [10]", "value": "Active"}, {"measurement": "Activity", "setting": "Rattus norvegicus [11]", "value": "Active"}, {"measurement": "Activity", "setting": "Rattus norvegicus [12]", "value": "Non-Toxic"}, {"measurement": "Activity", "setting": "Rattus norvegicus [13]", "value": "Non-Toxic"}, {"measurement": "Activity", "setting": "Rattus norvegicus [14]", "value": "Non-Toxic"}, {"measurement": "Activity", "setting": "Rattus norvegicus [15]", "value": "Non-Toxic"}, {"measurement": "Time", "setting": "Mus musculus [16]", "value": 0.25, "unit": "h"}, {"measurement": "Time", "setting": "Rattus norvegicus [17]", "value": 1, "unit": "h"}, {"measurement": "ED50", "setting": "Rattus norvegicus [18]", "value": 69.6, "unit": "mg/kg"}, {"measurement": "selectivity ratio", "setting": "[19]", "value": "> 7.18"}]}
